Test results: ChEMBL document CHEMBL4354824, “4-Aryl-1-oxa-4,9-diazaspiro[5.5]undecane Derivatives as Dual μ-Opioid Receptor Agonists and σ1 Receptor Antagonists for the Treatment of Pain” (J Med Chem, 2020)
≈ marks a conversion by molar mass, not a printed value.

How the values were obtained:
[1] = target: T1, Mu-type opioid receptor (Homo sapiens, UniProt P35372); experiment: Agonist activity at human MOR expressed in CHOK1 cells assessed as […] of cAMP accumulation incubated for 45 mins by HTRF assay; assay type: functional, cell-based
[2] = target: T1, Mu-type opioid receptor; experiment: Agonist activity at human MOR expressed in CHOK1 cells assessed as […] of cAMP accumulation at 1 uM incubated for 45 mins by HTRF assay; assay type: functional, cell-based
[3] = target: T2, Sigma non-opioid intracellular receptor 1 (Homo sapiens, UniProt Q99720); experiment: Displacement of [3H]-(+)-pentazocine from human sigma-1 receptor expressed in HEK293 membranes incubated for 120 mins by liquid scintillation counting method
[4] = target: T1, Mu-type opioid receptor; experiment: Displacement of [3H]-DAMGO from human MOR expressed in CHOK1 cell membranes at 1 uM incubated for 60 mins by liquid scintillation counting method
[5] = target: T3, Alpha-1A adrenergic receptor (Homo sapiens) (UniProt P35348); experiment: Displacement of [3H]-prazosin from human alpha1A adrenoreceptor expressed in enriched membranes at 1 uM incubated for 90 mins by liquid scintillation counting method relative to control; assay type: cell membranes
T3 sequence (whole entry): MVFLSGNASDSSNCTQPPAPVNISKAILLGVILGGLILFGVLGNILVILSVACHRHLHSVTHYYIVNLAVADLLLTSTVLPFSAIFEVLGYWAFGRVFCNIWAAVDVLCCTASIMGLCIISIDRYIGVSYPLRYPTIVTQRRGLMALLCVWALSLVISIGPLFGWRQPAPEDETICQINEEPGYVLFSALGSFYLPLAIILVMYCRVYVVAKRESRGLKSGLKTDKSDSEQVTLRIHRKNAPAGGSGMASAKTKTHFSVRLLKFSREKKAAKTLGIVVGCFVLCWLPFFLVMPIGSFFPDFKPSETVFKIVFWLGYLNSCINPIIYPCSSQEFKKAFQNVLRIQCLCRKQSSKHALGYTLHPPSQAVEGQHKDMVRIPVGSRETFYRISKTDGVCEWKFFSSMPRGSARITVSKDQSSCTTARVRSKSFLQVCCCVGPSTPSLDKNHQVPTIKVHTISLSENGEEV

[6] = target: T1, Mu-type opioid receptor; experiment: biochemical
Description: Displacement of [3H]-DAMGO from human MOR expressed in CHOK1 cell membranes incubated for 60 mins by liquid scintillation counting method

[7] = target: T1, Mu-type opioid receptor; experiment: Agonist activity at human MOR expressed in CHOK1 cells assessed as […] of cAMP accumulation incubated for 45 mins by HTRF assay relative to DAMGO; assay type: functional, cell-based
[8] = target: hERG (KCNH2) (Homo sapiens, UniProt Q12809); experiment: Inhibition of human ERG expressed in CHOK1 cells assessed as reduction in channel current at 10 uM at -80 mV holding potential by whole cell patch clamp assay relative to control; assay type: cell-based; conditions: CHO-K1 cells expressing human ERG
[9] = target: Voltage-gated inwardly rectifying potassium channel KCNH2 (Homo sapiens, UniProt Q12809)
Description: Inhibition of human ERG expressed in CHOK1 cells assessed as reduction in channel current at -80 mV holding potential by whole cell patch clamp assay

[10] = test system: Mus musculus; experiment: Antinociceptive activity in orally dosed mouse assessed as reduction in mechanical nociception measured after 30 mins post dose by paw pressure pain test; assay type: functional; conditions: po, 0.5 h
[11] = test system: Mus musculus; experiment: Induction of constipation in mouse assessed as effect on intestinal transit at 10 mg/kg, po dosed 30 mins before charcoal suspension dosing and measured after 30 mins; assay type: organism-based; conditions: in vivo, 0.5 h
[12] = target: T1, Mu-type opioid receptor; experiment: Displacement of [3H]-DAMGO from human MOR expressed in CHOK1 cell membranes at 10 uM incubated for 60 mins by liquid scintillation counting method
[13] = target: T1, Mu-type opioid receptor; experiment: Agonist activity at human MOR expressed in CHOK1 cells assessed as […] of cAMP accumulation at 10 uM incubated for 45 mins by HTRF assay; assay type: functional, cell-based
[14] = target: T4, Alpha-1A adrenergic receptor (Homo sapiens, UniProt P35348); experiment: Displacement of [3H]-prazosin from human alpha1A adrenoreceptor expressed in enriched membranes incubated for 90 mins by liquid scintillation counting method; assay type: cell membranes
T4 sequence (P35348 whole entry): T3 sequence (whole entry)

[15] = target: 5-hydroxytryptamine receptor 2B (Homo sapiens, UniProt P41595); experiment: Inhibition of 5HT2B receptor (unknown origin)
[16] = Thermodynamic solubility in pH 2 buffer; assay type: physicochemical; conditions: read-out: Therm_solubility
[17] = Thermodynamic solubility in pH 7.4 buffer; assay type: physicochemical; conditions: read-out: Therm_solubility
[18] = Basicity constant, pKa of the compound; assay type: physicochemical
[19] = Lipophilicity, log Pof the compound; assay type: physicochemical; conditions: octanol/water
[20] = Clearance in human liver microsomes; assay type: ADME, Microsome; conditions: read-out: CLH
[21] = target: T5, Cytochrome P450 1A2 (Homo sapiens, UniProt P05177); experiment: Inhibition of recombinant human CYP1A2 using fluorometric substrate; assay type: ADME; conditions: recombinant enzyme
T5 sequence (P05177 whole entry): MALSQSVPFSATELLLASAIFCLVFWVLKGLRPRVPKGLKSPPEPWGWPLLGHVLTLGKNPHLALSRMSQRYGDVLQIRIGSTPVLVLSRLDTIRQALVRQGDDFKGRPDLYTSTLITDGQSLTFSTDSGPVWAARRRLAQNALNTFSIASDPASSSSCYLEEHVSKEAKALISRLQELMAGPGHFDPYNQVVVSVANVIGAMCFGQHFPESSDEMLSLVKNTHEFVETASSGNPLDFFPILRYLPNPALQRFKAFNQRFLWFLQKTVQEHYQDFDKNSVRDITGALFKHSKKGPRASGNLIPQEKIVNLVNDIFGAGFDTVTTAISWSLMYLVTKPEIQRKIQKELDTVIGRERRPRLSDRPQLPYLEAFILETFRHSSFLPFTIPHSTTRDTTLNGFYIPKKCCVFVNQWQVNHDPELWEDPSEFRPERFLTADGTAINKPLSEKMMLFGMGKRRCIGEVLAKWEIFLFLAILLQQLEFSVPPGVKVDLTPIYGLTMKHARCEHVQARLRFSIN

[22] = target: Cytochrome P450 2C9 (Homo sapiens, UniProt P11712); experiment: Inhibition of recombinant human CYP2C9 using fluorometric substrate; assay type: ADME; conditions: recombinant enzyme
[23] = target: Cytochrome P450 2C19 (Homo sapiens, UniProt P33261); experiment: Inhibition of recombinant human CYP2C19 using fluorometric substrate; assay type: ADME; conditions: recombinant enzyme
[24] = target: Cytochrome P450 2D6 (Homo sapiens, UniProt P10635); experiment: Inhibition of recombinant human CYP2D6 using fluorometric substrate; assay type: ADME; conditions: recombinant enzyme
[25] = target: Cytochrome P450 2E1 (Homo sapiens, UniProt P05181); experiment: Inhibition of recombinant human CYP2E1 using fluorometric substrate; assay type: ADME; conditions: recombinant enzyme
[26] = target: Cytochrome P450 3A4 (Homo sapiens, UniProt P08684); experiment: Inhibition of recombinant human CYP3A4 using fluorometric substrate; assay type: ADME; conditions: recombinant enzyme
[27] = test system: Mus musculus; experiment: Antinociceptive activity in ip dosed mouse assessed as reduction in mechanical nociception measured after 30 mins post dose by paw pressure pain test; assay type: functional; conditions: 0.5 h
[28] = test system: Mus musculus; experiment: Induction of constipation in mouse assessed as effect on intestinal transit at 20 mg/kg, ip dosed 30 mins before charcoal suspension dosing and measured after 30 mins; assay type: organism-based; conditions: in vivo, 0.5 h
[29] = target: T2, Sigma non-opioid intracellular receptor 1; experiment: Displacement of [3H]-(+)-pentazocine from human sigma-1 receptor expressed in HEK293 membranes at 1 uM incubated for 120 mins by liquid scintillation counting method relative to control

Chain of hERG (KCNH2) (Q12809 whole entry): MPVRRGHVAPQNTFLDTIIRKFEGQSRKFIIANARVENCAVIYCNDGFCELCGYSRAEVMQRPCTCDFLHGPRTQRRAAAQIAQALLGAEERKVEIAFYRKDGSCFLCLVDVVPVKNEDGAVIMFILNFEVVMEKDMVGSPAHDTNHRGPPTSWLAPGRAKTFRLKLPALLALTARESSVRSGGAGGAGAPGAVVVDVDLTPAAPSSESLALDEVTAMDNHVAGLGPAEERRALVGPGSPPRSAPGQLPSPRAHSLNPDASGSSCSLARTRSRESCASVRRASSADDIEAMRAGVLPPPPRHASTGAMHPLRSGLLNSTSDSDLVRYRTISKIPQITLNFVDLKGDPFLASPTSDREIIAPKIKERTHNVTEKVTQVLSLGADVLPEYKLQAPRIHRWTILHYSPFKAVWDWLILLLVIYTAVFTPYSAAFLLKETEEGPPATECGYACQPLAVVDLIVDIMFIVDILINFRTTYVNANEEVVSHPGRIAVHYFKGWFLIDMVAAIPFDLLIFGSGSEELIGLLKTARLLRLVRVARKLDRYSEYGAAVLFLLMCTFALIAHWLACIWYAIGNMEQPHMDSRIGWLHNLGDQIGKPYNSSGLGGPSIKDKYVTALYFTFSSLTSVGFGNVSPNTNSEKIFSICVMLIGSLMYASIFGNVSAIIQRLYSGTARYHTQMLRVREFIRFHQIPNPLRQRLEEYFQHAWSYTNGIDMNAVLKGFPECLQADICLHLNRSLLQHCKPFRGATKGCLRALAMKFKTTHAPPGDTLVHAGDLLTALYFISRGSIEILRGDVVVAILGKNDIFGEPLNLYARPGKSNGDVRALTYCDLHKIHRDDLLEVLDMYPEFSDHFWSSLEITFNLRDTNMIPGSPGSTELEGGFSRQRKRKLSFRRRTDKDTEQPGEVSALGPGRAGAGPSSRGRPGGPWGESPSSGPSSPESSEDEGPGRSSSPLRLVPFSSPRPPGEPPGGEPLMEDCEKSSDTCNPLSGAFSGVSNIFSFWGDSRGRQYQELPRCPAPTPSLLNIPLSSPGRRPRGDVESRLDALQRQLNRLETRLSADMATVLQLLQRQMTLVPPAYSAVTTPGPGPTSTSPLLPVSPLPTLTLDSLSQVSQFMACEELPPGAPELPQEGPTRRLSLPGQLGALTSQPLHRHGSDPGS
Chain of Voltage-gated inwardly rectifying potassium channel KCNH2 (Q12809 whole entry): as above
T2 sequence (Q99720 whole entry): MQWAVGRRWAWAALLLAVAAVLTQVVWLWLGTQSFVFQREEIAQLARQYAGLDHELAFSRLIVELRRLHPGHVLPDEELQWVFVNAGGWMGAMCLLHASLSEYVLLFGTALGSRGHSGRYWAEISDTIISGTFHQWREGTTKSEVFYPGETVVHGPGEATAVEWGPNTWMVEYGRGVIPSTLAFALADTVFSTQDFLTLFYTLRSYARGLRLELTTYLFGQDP
T1 sequence (P35372 whole entry): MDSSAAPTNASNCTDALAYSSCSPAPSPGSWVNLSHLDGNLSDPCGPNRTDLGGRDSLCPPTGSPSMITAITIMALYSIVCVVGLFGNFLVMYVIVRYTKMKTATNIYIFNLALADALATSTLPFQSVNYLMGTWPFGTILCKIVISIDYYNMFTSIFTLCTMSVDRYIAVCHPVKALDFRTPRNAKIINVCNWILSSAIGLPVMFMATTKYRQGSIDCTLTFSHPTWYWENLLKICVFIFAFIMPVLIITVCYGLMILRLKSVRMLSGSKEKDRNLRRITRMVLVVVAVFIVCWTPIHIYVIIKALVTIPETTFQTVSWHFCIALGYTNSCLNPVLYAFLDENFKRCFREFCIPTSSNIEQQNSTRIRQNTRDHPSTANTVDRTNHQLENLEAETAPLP
Chain of Cytochrome P450 2E1 (P05181 whole entry): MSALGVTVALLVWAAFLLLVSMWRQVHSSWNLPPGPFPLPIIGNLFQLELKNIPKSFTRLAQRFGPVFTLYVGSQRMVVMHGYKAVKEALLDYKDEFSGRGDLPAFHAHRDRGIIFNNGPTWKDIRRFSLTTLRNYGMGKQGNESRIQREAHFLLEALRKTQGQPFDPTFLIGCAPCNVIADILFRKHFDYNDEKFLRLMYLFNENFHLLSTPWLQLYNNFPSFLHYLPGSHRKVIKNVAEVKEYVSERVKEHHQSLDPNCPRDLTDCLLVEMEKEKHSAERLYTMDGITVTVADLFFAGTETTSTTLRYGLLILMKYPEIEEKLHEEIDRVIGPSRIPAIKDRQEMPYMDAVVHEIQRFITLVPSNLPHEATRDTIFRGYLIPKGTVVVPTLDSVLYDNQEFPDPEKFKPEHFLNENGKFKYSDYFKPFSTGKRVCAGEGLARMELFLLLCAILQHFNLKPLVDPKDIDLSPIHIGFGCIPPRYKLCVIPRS
Chain of Cytochrome P450 2D6 (P10635 whole entry): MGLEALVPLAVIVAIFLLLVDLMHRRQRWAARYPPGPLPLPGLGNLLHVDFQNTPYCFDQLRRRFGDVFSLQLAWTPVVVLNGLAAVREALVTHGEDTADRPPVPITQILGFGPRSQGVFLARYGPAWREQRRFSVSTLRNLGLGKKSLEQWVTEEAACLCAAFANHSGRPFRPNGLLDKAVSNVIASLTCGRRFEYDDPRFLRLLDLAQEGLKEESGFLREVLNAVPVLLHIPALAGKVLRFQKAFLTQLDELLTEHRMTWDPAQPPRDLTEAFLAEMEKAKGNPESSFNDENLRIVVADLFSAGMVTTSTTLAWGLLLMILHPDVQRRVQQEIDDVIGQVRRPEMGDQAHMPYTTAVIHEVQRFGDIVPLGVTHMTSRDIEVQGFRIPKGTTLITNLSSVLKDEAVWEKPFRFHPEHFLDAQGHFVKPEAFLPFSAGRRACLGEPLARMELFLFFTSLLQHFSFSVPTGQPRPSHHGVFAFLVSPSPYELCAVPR
Chain of 5-hydroxytryptamine receptor 2B (P41595 whole entry): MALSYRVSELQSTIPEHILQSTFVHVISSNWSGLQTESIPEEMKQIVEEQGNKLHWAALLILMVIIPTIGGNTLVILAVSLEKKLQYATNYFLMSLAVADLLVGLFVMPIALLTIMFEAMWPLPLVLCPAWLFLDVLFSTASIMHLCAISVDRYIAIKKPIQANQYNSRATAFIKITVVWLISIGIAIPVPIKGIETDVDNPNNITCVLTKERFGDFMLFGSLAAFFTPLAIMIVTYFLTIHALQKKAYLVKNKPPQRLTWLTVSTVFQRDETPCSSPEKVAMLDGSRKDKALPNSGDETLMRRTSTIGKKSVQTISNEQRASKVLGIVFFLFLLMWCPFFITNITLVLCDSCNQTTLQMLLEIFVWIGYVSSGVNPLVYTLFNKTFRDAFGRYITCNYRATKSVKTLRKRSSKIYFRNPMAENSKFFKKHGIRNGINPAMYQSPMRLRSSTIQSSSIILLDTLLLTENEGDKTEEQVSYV
Chain of Cytochrome P450 2C9 (P11712 whole entry): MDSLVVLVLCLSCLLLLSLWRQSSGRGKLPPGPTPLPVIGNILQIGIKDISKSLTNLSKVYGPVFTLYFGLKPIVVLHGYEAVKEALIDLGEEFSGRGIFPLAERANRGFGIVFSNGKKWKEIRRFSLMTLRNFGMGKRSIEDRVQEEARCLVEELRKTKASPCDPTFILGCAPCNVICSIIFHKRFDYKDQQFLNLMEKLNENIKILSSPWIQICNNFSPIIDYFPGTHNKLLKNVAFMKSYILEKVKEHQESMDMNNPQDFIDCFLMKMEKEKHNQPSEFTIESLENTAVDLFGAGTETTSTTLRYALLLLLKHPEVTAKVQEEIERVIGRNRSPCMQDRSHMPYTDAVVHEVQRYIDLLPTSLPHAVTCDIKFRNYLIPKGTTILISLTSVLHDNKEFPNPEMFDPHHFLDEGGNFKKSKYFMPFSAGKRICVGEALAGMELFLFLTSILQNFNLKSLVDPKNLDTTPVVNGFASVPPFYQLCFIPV

In the case of CC(=O)Nc1ccc(CCN2CCC3(CC2)CN(c2ccccc2)C(=O)C(C)O3)cc1 (stereo unspecified), the EC50 [1] is reported as > 1000 nM, the Activity [2] is reported as < 50% and the Ki [3] is reported as 237 nM. For the same molecule, the inhibition [4] was < 50%, the inhibition [5] was 60% and the Ki [6] was > 1000 nM.

With CC(=O)Nc1cccc(CCN2CCC3(CC2)CN(c2ccccc2)C(=O)[C@@H](C)O3)c1 the EC50 [1] was 69 nM, the Emax [7] was 95% and the Ki [3] was 205 nM. The inhibition [5] was 90%, the inhibition at 10 µM [8] was < 50% and the IC50 [9] was > 10000 nM. For the same molecule, the Ki [6] was 46 nM.

For COc1ccc(N2CC3(CCN(CCc4ccccc4)CC3)OC(C)C2=O)cc1 (stereo unspecified), the EC50 [1] was > 1000 nM, the Activity [2] was < 50% and the Ki [3] was 14 nM. For the same molecule, the inhibition [4] was < 50%, the inhibition [5] was 69% and the Ki [6] was > 1000 nM.

For CC1OC2(CCN(CCc3ccccc3)CC2)CN(c2ccc(C(F)(F)F)nc2)C1=O (stereo unspecified), the EC50 [1] was > 1000 nM, the Activity [2] was < 50% and the Ki [3] was 9 nM. The inhibition [4] was < 50%, the inhibition [5] was 66% and the Ki [6] was > 1000 nM.

For COc1ccc2c3c1O[C@H]1C(=O)CC[C@@]4(O)[C@@H](C2)N(C)CC[C@]314 [OXYCODONE], the ED50 [10] was 4.3 mg/kg and the Activity [11] was “Toxic”.

For CC1OC2(CCN(CCc3ccccc3)CC2)CN(c2ccncc2)C1=O (stereo unspecified), the EC50 [1] was > 1000 nM, the Activity [2] was < 50% and the Ki [3] was 88 nM. For the same molecule, the inhibition [4] was < 50%, the inhibition [5] was 68% and the Ki [6] was > 1000 nM.

CC(=O)Nc1cccc(CCN2CCC3(CC2)CN(c2ccccc2)C(=O)C(C)O3)c1 (racemic) gave an EC50 [1] of 343 nM, an Emax [7] of 96% and a Ki [3] of 147 nM. The inhibition [5] was 88%, the inhibition at 10 µM [8] was < 50% and the IC50 [9] was > 10000 nM. The Ki [6] was 144 nM.

In the case of O=C(CCCN1CCC(O)(c2ccc(Cl)cc2)CC1)c1ccc(F)cc1, the inhibition [12] is reported as < 50% and the Activity [13] is reported as < 50%.

In the case of Cc1cc(OCCN2CCOCC2)nn1-c1ccc2ccccc2c1, the Activity [13] is reported as < 50%.

With O=C1N(c2cccnc2C(F)(F)F)CC2(CCN(CCc3ccccc3F)CC2)OC12CC2 the inhibition at 10 µM [8] was < 50%, the Ki [14] was 470 nM and the Ki [15] was 754 nM. It also gave a solubility thermodynamic [16] of 2630 µg/mL (≈ 5.67 mM), a solubility thermodynamic [17] of 160 µg/mL (≈ 0.345 mM) and a pKa [18] of 7.82. For the same molecule, the logP [19] was 3.41, the microsomal CLint [20] was 20 µL/min/mg and the “inhibition (INH)” value [21] was < 50%. For the same molecule, the “inhibition (INH)” value [22] was < 50%, the “inhibition (INH)” value [23] was < 50% and the “inhibition (INH)” value [24] was < 50%. For the same molecule, the “inhibition (INH)” value [25] was < 50%, the “inhibition (INH)” value [26] was < 50% and the ED50 [27] was 15 mg/kg. The Activity [28] was “Non-Toxic” and the IC50 [9] was > 10000 nM.

For O=C(O)CC1OC2(CCN(CCc3ccccc3)CC2)CN(c2ccccc2)C1=O (stereo unspecified), the EC50 [1] was > 1000 nM, the Activity [2] was < 50% and the Ki [3] was > 1000 nM. For the same molecule, the inhibition [4] was < 50%, the inhibition [29] was < 50% and the Ki [6] was > 1000 nM.
